For 23 compounds, IC50 results are on record in ChEMBL document CHEMBL1681728, “An automated, polymer-assisted strategy for the preparation of urea and thiourea derivatives of 15-membered azalides as potential antimalarial chemotherapeutics” (Bioorg Med Chem, 2011).

What all share (format): functional, organism-based
Assay [1] concerns Plasmodium falciparum. Briefly: Antimalarial activity against chloroquine-,pyrimethamine-resistant Plasmodium falciparum W2 assessed as inhibition of [3H]hypoxanthine incorporation after 96 hrs by microtiter plate scintillation counting.
Assay [2] relates to Plasmodium falciparum. Briefly: Antimalarial activity against multidrug-resistant Plasmodium falciparum TM91C235 assessed as inhibition of [3H]hypoxanthine incorporation after 96 hrs by microtiter plate scintillation counting.
For assay [3], the system named is Plasmodium falciparum. Briefly: Antimalarial activity against chloroquine-sensitive Plasmodium falciparum D6 assessed as inhibition of [3H]hypoxanthine incorporation after 96 hrs by microtiter plate scintillation counting.

Molecules are shown by their SMILES.

Broadly, the IC50 is the point on the concentration scale where inhibition reaches its midpoint.

`CC[C@H]1OC(=O)[C@H](C)[C@@H](O[C@H]2C[C@@](C)(OC)[C@@H](O)[C@H](C)O2)[C@H](C)[C@@H](O[C@@H]2O[C@H](C)C[C@H](N(C)C)[C@H]2O)[C@](C)(O)C[C@@H](C)CN(CCCNC(=O)Nc2ccc(CC#N)cc2)[C@H](C)[C@@H](O)[C@]1(C)O`: the IC50 came to 0.149 µM with Plasmodium falciparum [1], 0.571 µM in the assay on Plasmodium falciparum [2] and 1.79 µM in the assay with Plasmodium falciparum [3].

As to `CC[C@H]1OC(=O)[C@H](C)[C@@H](O[C@H]2C[C@@](C)(OC)[C@@H](O)[C@H](C)O2)[C@H](C)[C@@H](O[C@@H]2O[C@H](C)C[C@H](N(C)C)[C@H]2O)[C@](C)(O)C[C@@H](C)CN(CCCNC(=S)NCC23CC4CC(CC(C4)C2)C3)[C@H](C)[C@@H](O)[C@]1(C)O`, the IC50 was 0.21 µM in the assay on Plasmodium falciparum [1], 0.152 µM in the assay on Plasmodium falciparum [2] and 0.553 µM in the assay on Plasmodium falciparum [3].

For `CC[C@H]1OC(=O)[C@H](C)[C@@H](O[C@H]2C[C@@](C)(OC)[C@@H](O)[C@H](C)O2)[C@H](C)[C@@H](O[C@@H]2O[C@H](C)C[C@H](N(C)C)[C@H]2O)[C@](C)(O)C[C@@H](C)CN(CCCNC(=O)Nc2cc(F)ccc2C)[C@H](C)[C@@H](O)[C@]1(C)O`, the IC50 in the assay on Plasmodium falciparum [1] came out at 0.0532 µM; with Plasmodium falciparum [2], 0.117 µM; with Plasmodium falciparum [3], 0.396 µM.

On to `CC[C@H]1OC(=O)[C@H](C)[C@@H](O[C@H]2C[C@@](C)(OC)[C@@H](O)[C@H](C)O2)[C@H](C)[C@@H](O[C@@H]2O[C@H](C)C[C@H](N(C)C)[C@H]2O)[C@](C)(O)C[C@@H](C)CN(CCCNC(=O)Nc2ccc(OCc3ccccc3)cc2)[C@H](C)[C@@H](O)[C@]1(C)O`, for which the half-maximal inhibitory concentration (IC50) worked out at 0.175 µM in the assay with Plasmodium falciparum [1], 0.146 µM in the assay on Plasmodium falciparum [2] and 0.299 µM in the assay with Plasmodium falciparum [3].

`CC[C@H]1OC(=O)[C@H](C)[C@@H](O[C@H]2C[C@@](C)(OC)[C@@H](O)[C@H](C)O2)[C@H](C)[C@@H](O[C@@H]2O[C@H](C)C[C@H](N(C)C)[C@H]2O)[C@](C)(O)C[C@@H](C)CN(CCCNC(=S)Nc2cccc(C(F)(F)F)c2)[C@H](C)[C@@H](O)[C@]1(C)O`: the IC50 with Plasmodium falciparum [1] amounted to 0.0303 µM; with Plasmodium falciparum [2], 0.054 µM; in the assay with Plasmodium falciparum [3], 0.12 µM.

With `CC[C@H]1OC(=O)[C@H](C)[C@@H](O[C@H]2C[C@@](C)(OC)[C@@H](O)[C@H](C)O2)[C@H](C)[C@@H](O[C@@H]2O[C@H](C)C[C@H](N(C)C)[C@H]2O)[C@](C)(O)C[C@@H](C)CN(CCCNC(=S)Nc2cccc(-c3ccccc3)c2OC)[C@H](C)[C@@H](O)[C@]1(C)O`, the IC50 in the assay on Plasmodium falciparum [1] amounted to 0.114 µM; in the assay on Plasmodium falciparum [2], 0.0553 µM; with Plasmodium falciparum [3], 0.0581 µM.

Turning to `CC[C@H]1OC(=O)[C@H](C)[C@@H](O[C@H]2C[C@@](C)(OC)[C@@H](O)[C@H](C)O2)[C@H](C)[C@@H](O[C@@H]2O[C@H](C)C[C@H](N(C)C)[C@H]2O)[C@](C)(O)C[C@@H](C)CN(CCCNC(=O)Nc2ccc(C(C)=O)cc2)[C@H](C)[C@@H](O)[C@]1(C)O`, the half-maximal inhibitory concentration (IC50) with Plasmodium falciparum [1] turned out to be 0.709 µM; with Plasmodium falciparum [2] it was 0.398 µM; with Plasmodium falciparum [3] it was 1.73 µM.

`CC[C@H]1OC(=O)[C@H](C)[C@@H](O[C@H]2C[C@@](C)(OC)[C@@H](O)[C@H](C)O2)[C@H](C)[C@@H](O[C@@H]2O[C@H](C)C[C@H](N(C)C)[C@H]2O)[C@](C)(O)C[C@@H](C)CN(CCCNC(=O)Nc2cccc(Cl)c2)[C@H](C)[C@@H](O)[C@]1(C)O`: the IC50 with Plasmodium falciparum [1] stood at 0.187 µM; in the assay with Plasmodium falciparum [2], 0.118 µM; with Plasmodium falciparum [3] it was 0.455 µM.

Regarding `CC[C@H]1OC(=O)[C@H](C)[C@@H](O[C@H]2C[C@@](C)(OC)[C@@H](O)[C@H](C)O2)[C@H](C)[C@@H](O[C@@H]2O[C@H](C)C[C@H](N(C)C)[C@H]2O)[C@](C)(O)C[C@@H](C)CN(CCCNC(=S)Nc2ccc([N+](=O)[O-])cc2OC)[C@H](C)[C@@H](O)[C@]1(C)O`, the results for the IC50 with Plasmodium falciparum [1], with Plasmodium falciparum [2] and with Plasmodium falciparum [3] were 0.0501 µM, 0.0697 µM and 0.0745 µM, respectively.

As to `CC[C@H]1OC(=O)[C@H](C)[C@@H](O[C@H]2C[C@@](C)(OC)[C@@H](O)[C@H](C)O2)[C@H](C)[C@@H](O[C@@H]2O[C@H](C)C[C@H](N(C)C)[C@H]2O)[C@](C)(O)C[C@@H](C)CN(CCCNC(=O)Nc2cccs2)[C@H](C)[C@@H](O)[C@]1(C)O`, the results for the IC50 in the assay with Plasmodium falciparum [1], with Plasmodium falciparum [2] and in the assay on Plasmodium falciparum [3] were 0.721 µM, 0.549 µM and 0.964 µM, respectively.

In the case of `CC[C@H]1OC(=O)[C@H](C)[C@@H](O[C@H]2C[C@@](C)(OC)[C@@H](O)[C@H](C)O2)[C@H](C)[C@@H](O[C@@H]2O[C@H](C)C[C@H](N(C)C)[C@H]2O)[C@](C)(O)C[C@@H](C)CN(CCCNC(=S)NCCN2CCCCC2)[C@H](C)[C@@H](O)[C@]1(C)O`, the values for the IC50 in the assay with Plasmodium falciparum [1], with Plasmodium falciparum [2] and in the assay on Plasmodium falciparum [3] were 3.3 µM, 3.03 µM and 9.29 µM, respectively.

Take `CC[C@H]1OC(=O)[C@H](C)[C@@H](O[C@H]2C[C@@](C)(OC)[C@@H](O)[C@H](C)O2)[C@H](C)[C@@H](O[C@@H]2O[C@H](C)C[C@H](N(C)C)[C@H]2O)[C@](C)(O)C[C@@H](C)CN(CCCNC(=S)NCC(C)C)[C@H](C)[C@@H](O)[C@]1(C)O`: the IC50 in the assay with Plasmodium falciparum [1] came to 0.495 µM; with Plasmodium falciparum [2] it was 0.435 µM; in the assay with Plasmodium falciparum [3], 0.689 µM.

On to `CC[C@H]1OC(=O)[C@H](C)[C@@H](O[C@H]2C[C@@](C)(OC)[C@@H](O)[C@H](C)O2)[C@H](C)[C@@H](O[C@@H]2O[C@H](C)C[C@H](N(C)C)[C@H]2O)[C@](C)(O)C[C@@H](C)CN(CCCNC(=S)Nc2ccc(F)cc2)[C@H](C)[C@@H](O)[C@]1(C)O`, for which the IC50 in the assay on Plasmodium falciparum [1] was found to be 0.0728 µM; with Plasmodium falciparum [2] it was 0.139 µM; with Plasmodium falciparum [3], 0.32 µM.

`CC[C@H]1OC(=O)[C@H](C)[C@@H](O[C@H]2C[C@@](C)(OC)[C@@H](O)[C@H](C)O2)[C@H](C)[C@@H](O[C@@H]2O[C@H](C)C[C@H](N(C)C)[C@H]2O)[C@](C)(O)C[C@@H](C)CN(CCCNC(=O)Nc2ccc(C)cc2)[C@H](C)[C@@H](O)[C@]1(C)O`: the concentration for half-maximal inhibition (IC50) in the assay with Plasmodium falciparum [1] was determined as 0.0887 µM; in the assay on Plasmodium falciparum [2], 0.139 µM; in the assay with Plasmodium falciparum [3] it was 0.33 µM.

For `CC[C@H]1OC(=O)[C@H](C)[C@@H](O[C@H]2C[C@@](C)(OC)[C@@H](O)[C@H](C)O2)[C@H](C)[C@@H](O[C@@H]2O[C@H](C)C[C@H](N(C)C)[C@H]2O)[C@](C)(O)C[C@@H](C)CN(CCCNC(=O)Nc2cc(C(=O)OC)cc(C(=O)OC)c2)[C@H](C)[C@@H](O)[C@]1(C)O`, the IC50 amounted to 0.12 µM with Plasmodium falciparum [1], 0.411 µM in the assay on Plasmodium falciparum [2] and 0.648 µM in the assay with Plasmodium falciparum [3].

In the case of `CC[C@H]1OC(=O)[C@H](C)[C@@H](O[C@H]2C[C@@](C)(OC)[C@@H](O)[C@H](C)O2)[C@H](C)[C@@H](O[C@@H]2O[C@H](C)C[C@H](N(C)C)[C@H]2O)[C@](C)(O)C[C@@H](C)CN(CCCNC(=O)Nc2c(C)noc2-c2ccccc2)[C@H](C)[C@@H](O)[C@]1(C)O`, the results for the IC50 in the assay with Plasmodium falciparum [1], with Plasmodium falciparum [2] and in the assay on Plasmodium falciparum [3] were 0.734 µM, 0.492 µM and 0.936 µM, respectively.

With `CC[C@H]1OC(=O)[C@H](C)[C@@H](O[C@H]2C[C@@](C)(OC)[C@@H](O)[C@H](C)O2)[C@H](C)[C@@H](O[C@@H]2O[C@H](C)C[C@H](N(C)C)[C@H]2O)[C@](C)(O)C[C@@H](C)CN(CCCNC(=S)NC(C)C)[C@H](C)[C@@H](O)[C@]1(C)O`, the IC50 amounted to 1.3 µM in the assay with Plasmodium falciparum [1], 0.428 µM with Plasmodium falciparum [2] and 2.61 µM with Plasmodium falciparum [3].

In the case of `CC[C@H]1OC(=O)[C@H](C)[C@@H](O[C@H]2C[C@@](C)(OC)[C@@H](O)[C@H](C)O2)[C@H](C)[C@@H](O[C@@H]2O[C@H](C)C[C@H](N(C)C)[C@H]2O)[C@](C)(O)C[C@@H](C)CN(CCCNC(=O)Nc2ccc(Cl)cc2)[C@H](C)[C@@H](O)[C@]1(C)O`, the IC50 stood at 0.0993 µM with Plasmodium falciparum [1], 0.0904 µM in the assay on Plasmodium falciparum [2] and 0.188 µM in the assay on Plasmodium falciparum [3].

Turning to `CC[C@H]1OC(=O)[C@H](C)[C@@H](O[C@H]2C[C@@](C)(OC)[C@@H](O)[C@H](C)O2)[C@H](C)[C@@H](O[C@@H]2O[C@H](C)C[C@H](N(C)C)[C@H]2O)[C@](C)(O)C[C@@H](C)CN(CCCNC(=S)Nc2cccc([N+](=O)[O-])c2)[C@H](C)[C@@H](O)[C@]1(C)O`, the IC50 in the assay with Plasmodium falciparum [1] stood at 0.0483 µM; in the assay on Plasmodium falciparum [2] it was 0.0429 µM; in the assay with Plasmodium falciparum [3] it was 0.0534 µM.

Consider `CC[C@H]1OC(=O)[C@H](C)[C@@H](O[C@H]2C[C@@](C)(OC)[C@@H](O)[C@H](C)O2)[C@H](C)[C@@H](O[C@@H]2O[C@H](C)C[C@H](N(C)C)[C@H]2O)[C@](C)(O)C[C@@H](C)CN(CCCNC(=O)Nc2cccc(SC)c2)[C@H](C)[C@@H](O)[C@]1(C)O`, for which the IC50 was 0.0739 µM with Plasmodium falciparum [1], 0.137 µM in the assay on Plasmodium falciparum [2] and 0.332 µM with Plasmodium falciparum [3].

For `CC[C@H]1OC(=O)[C@H](C)[C@@H](O[C@H]2C[C@@](C)(OC)[C@@H](O)[C@H](C)O2)[C@H](C)[C@@H](O[C@@H]2O[C@H](C)C[C@H](N(C)C)[C@H]2O)[C@](C)(O)C[C@@H](C)CN(CCCNC(=S)NCCCN2CCOCC2)[C@H](C)[C@@H](O)[C@]1(C)O`, the IC50 is 1.27 µM in the assay with Plasmodium falciparum [1], 5.09 µM in the assay with Plasmodium falciparum [2] and 7.01 µM in the assay on Plasmodium falciparum [3].

In the case of `CC[C@H]1OC(=O)[C@H](C)[C@@H](O[C@H]2C[C@@](C)(OC)[C@@H](O)[C@H](C)O2)[C@H](C)[C@@H](O[C@@H]2O[C@H](C)C[C@H](N(C)C)[C@H]2O)[C@](C)(O)C[C@@H](C)CN(CCCNC(=S)NCc2ccc3c(c2)OCO3)[C@H](C)[C@@H](O)[C@]1(C)O`, the IC50 in the assay on Plasmodium falciparum [1] stood at 0.137 µM; in the assay with Plasmodium falciparum [2] it was 0.216 µM; in the assay on Plasmodium falciparum [3], 0.319 µM.

As for `CC[C@H]1OC(=O)[C@H](C)[C@@H](O[C@H]2C[C@@](C)(OC)[C@@H](O)[C@H](C)O2)[C@H](C)[C@@H](O[C@@H]2O[C@H](C)C[C@H](N(C)C)[C@H]2O)[C@](C)(O)C[C@@H](C)CN(CCCNC(=S)Nc2ccc(C)cc2)[C@H](C)[C@@H](O)[C@]1(C)O`, the IC50 in the assay on Plasmodium falciparum [1] worked out at 0.0713 µM; with Plasmodium falciparum [2] it was 0.164 µM; in the assay on Plasmodium falciparum [3], 0.33 µM.
